From ChEMBL document CHEMBL1687779, “Sodium nitrite-mediated killing of the major cystic fibrosis pathogens Pseudomonas aeruginosa, Staphylococcus aureus, and Burkholderia cepacia under anaerobic planktonic and biofilm conditions” (2010)
The source made the active and inactive calls. The calls are words filed in the database; no cut-off is given here.

Tests used:
Pseudomonas aeruginosa [1] = assay: Antimicrobial activity against non-mucoid Pseudomonas aeruginosa PAO1 after 24 hrs aerobic condition; conditions: PAO1, 24 h
Staphylococcus aureus [2] = assay: Antimicrobial activity against Staphylococcus aureus USA300 after 24 hrs aerobic condition; conditions: USA300, 24 h
Pseudomonas aeruginosa [3] = assay: Antimicrobial activity against mucoid Pseudomonas aeruginosa FRD1 harboring mucA22 mutant after 24 hrs under anaerobic condition; conditions: FRD1, 24 h
Pseudomonas aeruginosa [4] = assay: Antimicrobial activity against non-mucoid Pseudomonas aeruginosa PAO1 after 24 hrs anaerobic condition; conditions: PAO1, 24 h
Staphylococcus aureus [5] = assay: Antimicrobial activity against Staphylococcus aureus USA300 after 24 hrs anaerobic condition; conditions: USA300, 24 h
Pseudomonas aeruginosa [6] = assay: Antimicrobial activity against mucoid Pseudomonas aeruginosa FRD1 harboring mucA22 mutant after 24 hrs under aerobic condition; conditions: FRD1, 24 h
Pseudomonas aeruginosa [7] = conditions: FRD1, 64 ug/ml
Description: Antimicrobial activity against mucoid Pseudomonas aeruginosa FRD1 harboring mucA22 mutant assessed as inhibition of bacterial cell growth at 64 ug/ml after 24 hrs under anaerobic condition

Pseudomonas aeruginosa [8] = conditions: FRD1, 128 ug/ml
Description: Antimicrobial activity against mucoid Pseudomonas aeruginosa FRD1 harboring mucA22 mutant assessed as inhibition of bacterial cell growth at 128 ug/ml after 24 hrs under anaerobic condition

Pseudomonas aeruginosa [9] = conditions: FRD1, 256 ug/ml
Description: Antimicrobial activity against mucoid Pseudomonas aeruginosa FRD1 harboring mucA22 mutant assessed as 2 log inhibition of bacterial cell growth at 256 ug/ml after 2 days under anaerobic condition

Pseudomonas aeruginosa [10] = conditions: PAO1, 64 to 256 ug/ml
Description: Antimicrobial activity against non-mucoid Pseudomonas aeruginosa PAO1 assessed as inhibition of bacterial cell growth at 64 to 256 ug/ml after 24 hrs under anaerobic condition

Staphylococcus aureus [11] = conditions: USA300, 512 ug/ml
Description: Antimicrobial activity against Staphylococcus aureus USA300 assessed as inhibition of bacterial cell growth at 512 ug/ml after 24 hrs under anaerobic condition

Staphylococcus aureus [12] = conditions: USA300, 1024 ug/ml
Description: Antimicrobial activity against Staphylococcus aureus USA300 assessed as 2 log inhibition of bacterial cell growth at 1024 ug/ml after 2 days under anaerobic condition

Staphylococcus aureus [13] = conditions: USA300, 2048 ug/ml
Description: Antimicrobial activity against Staphylococcus aureus USA300 assessed as 4 log inhibition of bacterial cell growth at 2048 ug/ml after 4 days under anaerobic condition

Burkholderia cepacia [14] = conditions: 128 ug/ml
Description: Antimicrobial activity against Burkholderia cepacia isolated from cystic fibrosis patient assessed as inhibition of bacterial cell growth at 128 ug/ml after 48 hrs under anaerobic condition

Burkholderia cepacia [15] = assay: microbe, parasite or virus in culture; conditions: 24 h
Description: Antimicrobial activity against Burkholderia cepacia isolated from cystic fibrosis patient after 24 hrs aerobic condition

O=N[O-].[Na+] [SODIUM NITRITE]
MIC (Pseudomonas aeruginosa [1]): 2050 µg/mL | MIC (Staphylococcus aureus [2]): 4100 µg/mL | MIC (Pseudomonas aeruginosa [3]): 128 µg/mL | MIC (Pseudomonas aeruginosa [4]): 512 µg/mL | MIC (Staphylococcus aureus [5]): 1020 µg/mL | MIC (Pseudomonas aeruginosa [6]): 1020 µg/mL | inhibition (Pseudomonas aeruginosa [7]): Active | inhibition (Pseudomonas aeruginosa [8]): Active | inhibition (Pseudomonas aeruginosa [9]): Active | inhibition (Pseudomonas aeruginosa [10]): Active | inhibition (Staphylococcus aureus [11]): Active | inhibition (Staphylococcus aureus [12]): Active | inhibition (Staphylococcus aureus [13]): Active | inhibition (Burkholderia cepacia [14]): Active | MIC (Burkholderia cepacia [15]): 512 µg/mL
